The record followed here is patent publication US20240287136A1, “PHARMACEUTICAL COMPOSITION AND THE USE THEREOF IN THE TREATMENT OF AUTOIMMUNE DISEASES” (Singapore Health Services Pte. Ltd., priority 2016, published 2024).

In experiment [1] the test system is patients with early rheumatoid arthritis. The experiment in a line: Phase II trial of mucosal tolerization to SEQ ID NO. 1: clinical outcome. It is filed as in vivo, human. The procedure:
The model employed here is based on the hypothesis that immune tolerization to a T-cell epitope, such as SEQ ID NO. 1 that may be a contributor of inflammation in patients with rheumatoid arthritis, may lead to detectable clinical improvement. A total of 96 patients with early rheumatoid arthritis, who were not allowed on Methotrexate or biologics, were tested with mucosal tolerization to SEQ ID NO. 1. Patients are defined as “responders” if they meet the response criteria at any time during the study. […] SEQ ID NO. […]

For experiment [2], the system named is Monocyte-derived, LPS-induced dendritic cells (mDC). The experiment in a line: Marker expression on monocyte-derived, LPS-induced dendritic cells treated in vitro with HCQ. It is filed as cell-based, human. On the procedure:
FIG. 6. […] CD4+ sorted cells were co-cultured with the mDC-treated groups for an additional 24 hours.
(§1) MFI=Mean Fluorescence Index. […] MFI=Mean Fluorescence Index Sorted CD4+ T cells were then co-cultured with mDCs for an additional 24 hours.

The subject of another experiment is CD4+ sorted cells. The experiment in a line: PD-1 / PDL1 expression on CD4+ T cells co-cultured with HCQ-treated mDC. It is filed as cell-based, human. The procedure:
(§2) FIG. 6. […] CD4+ sorted cells were co-cultured with the mDC-treated groups for an additional 24 hours. The expression of PD-1 (MFI: 187 vs 212, T(x)=26.4, p<0.01) and intracellular PD-1 (MFI: 46 vs 222, T(x) 161, p<0.01) was increased in T cells when co-cultured with HCQ-treated mDC. h.
as §1
Monocyte-derived dendritic cells (DCs) were isolated from healthy controls and activated with lipopolysaccharide (LPS). […] HCQ-treated and untreated mature DCs were then co-cultured with CD4+ T cells to assess the potential of these DCs in activating the T cells.

The test system of experiment [3] is T cells cocultured with mDC. The experiment in a line: Gene expression of regulatory molecules in T cells co-cultured with mDC+HCQ. It is filed as cell-based, human. The procedure: as §2
Data are expressed as 2(−dCT)×100 of GAPDH.
as §1

Turning to `CCN(CCO)CCCC(C)Nc1ccnc2cc(Cl)ccc12` (stereo not shown) [HCQ, hydroxychloroquine], in experiment [1] (HCQ use preceding SEQ ID NO: 1 administration), the “effect on the therapeutic activity of SEQ ID NO: 1” value is recorded as “synergistic effect”. In experiment [1] (post hoc evaluation of Phase II trial, preceding use of HCQ in combination with SEQ ID NO. 1 treatment), the clinical control entry is “favored clinical control”. Besides, in experiment [2] (control 100), the “expression of HLA-DR on mDC” value was found to be 20.8 MFI. Further, the “expression of CD200 on mDC” value in experiment [2] (control 264) amounted to 409 MFI. The “expression of IL-10 in mDC” value in experiment [2] (control 453) was 1045 MFI. In experiment [2] (control 37983), the “expression of CD86 on mDC” value stood at 34170 MFI. In the experiment on CD4+ sorted cells (CD4+ cells co-cultured 24 hours with HCQ-treated mDC, control 46), the “expression of intracellular PD-1 in T cells” value was 222 MFI. Besides, the “expression of PD-1 in T cells” value in the experiment on CD4+ sorted cells (CD4+ cells co-cultured 24 hours with HCQ-treated mDC, control 187) is recorded as 212 MFI. For the same compound, the “expression of PDL1 on CD4+ T cells” value with CD4+ sorted cells (cultured in the presence of HCQ-treated DCs (FIG. 12B)) is given as “expressed more”. In addition, the “Gene expression of CTLA-4 in T cells” value in experiment [3] (without HCQ 1.74) is listed as 15.06 2(−dCT)×100 of GAPDH. Further, the “Gene expression of FoxP3 in T cells” value in experiment [3] (without HCQ 3.06) is given as 12.27 2(−dCT)×100 of GAPDH. In addition, the “Gene expression of IL-10 in T cells” value in experiment [3] (without HCQ 3.71) is recorded as 7.57 2(−dCT)×100 of GAPDH. In experiment [3] (without HCQ 15.00), the “Gene expression of TGF β in T cells” value is given as 23.85 2(−dCT)×100 of GAPDH.
